{
  "source": "PubChem BioAssay (NCI)",
  "test_in_all_cases": "growth of human tumour cells (NCI), 48 h",
  "key": {"HOP-92 NSCLC": {"test_system": "HOP-92 NSCLC"}, "XF 498 CNS": {"test_system": "XF 498 CNS"}, "HT29 colon": {"test_system": "HT29 colon"}, "MALME-3M melanoma": {"test_system": "MALME-3M melanoma"}, "DLD-1 colon": {"test_system": "DLD-1 colon"}, "IGROV1 ovarian": {"test_system": "IGROV1 ovarian"}, "DMS 273 small cell lung": {"test_system": "DMS 273 small cell lung"}, "HOP-18 NSCLC": {"test_system": "HOP-18 NSCLC"}, "EKVX NSCLC": {"test_system": "EKVX NSCLC"}, "HCC-2998 colon": {"test_system": "HCC-2998 colon"}, "M19-MEL melanoma": {"test_system": "M19-MEL melanoma"}, "UACC-62 melanoma": {"test_system": "UACC-62 melanoma"}, "NCI-H226 lung": {"test_system": "NCI-H226 lung"}, "HCT-116 colon": {"test_system": "HCT-116 colon"}, "CAKI-1 renal": {"test_system": "CAKI-1 renal"}, "LOX IMVI melanoma": {"test_system": "LOX IMVI melanoma"}, "SK-MEL-5 melanoma": {"test_system": "SK-MEL-5 melanoma"}, "HCT-15 colon": {"test_system": "HCT-15 colon"}, "SF-295 CNS": {"test_system": "SF-295 CNS"}, "U251 CNS": {"test_system": "U251 CNS"}, "SF-268 CNS": {"test_system": "SF-268 CNS"}, "UACC-257 melanoma": {"test_system": "UACC-257 melanoma"}, "RPMI-8226 leukemia": {"test_system": "RPMI-8226 leukemia"}, "COLO 205 colon": {"test_system": "COLO 205 colon"}, "OVCAR-5 ovarian": {"test_system": "OVCAR-5 ovarian"}, "A549 NSCLC": {"test_system": "A549 NSCLC"}, "ACHN renal": {"test_system": "ACHN renal"}, "KM20L2 colon": {"test_system": "KM20L2 colon"}, "SW-620 colon": {"test_system": "SW-620 colon"}, "TK-10 renal": {"test_system": "TK-10 renal"}, "SR leukemia": {"test_system": "SR leukemia"}, "DMS 114 small cell lung": {"test_system": "DMS 114 small cell lung"}, "NCI-H460 lung": {"test_system": "NCI-H460 lung"}, "SK-MEL-2 melanoma": {"test_system": "SK-MEL-2 melanoma"}, "OVCAR-3 ovarian": {"test_system": "OVCAR-3 ovarian"}, "KM12 colon": {"test_system": "KM12 colon"}, "M14 melanoma": {"test_system": "M14 melanoma"}, "MOLT-4 leukemia": {"test_system": "MOLT-4 leukemia"}, "A498 renal": {"test_system": "A498 renal"}, "LXFL 529 NSCLC": {"test_system": "LXFL 529 NSCLC"}, "HOP-62 NSCLC": {"test_system": "HOP-62 NSCLC"}, "UO-31 renal": {"test_system": "UO-31 renal"}, "NCI-H522 lung": {"test_system": "NCI-H522 lung"}, "SN12C renal": {"test_system": "SN12C renal"}, "SNB-19 CNS": {"test_system": "SNB-19 CNS"}, "786-0 renal": {"test_system": "786-0 renal"}, "NCI-H23 lung": {"test_system": "NCI-H23 lung"}, "SF-539 CNS": {"test_system": "SF-539 CNS"}, "RXF 393 renal": {"test_system": "RXF 393 renal"}, "OVCAR-8 ovarian": {"test_system": "OVCAR-8 ovarian"}, "SK-MEL-28 melanoma": {"test_system": "SK-MEL-28 melanoma"}, "SK-OV-3 ovarian": {"test_system": "SK-OV-3 ovarian"}, "SNB-75 CNS": {"test_system": "SNB-75 CNS"}, "SNB-78 CNS": {"test_system": "SNB-78 CNS"}, "OVCAR-4 ovarian": {"test_system": "OVCAR-4 ovarian"}},
  "note": "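Step 1: Grow cells in 96-well plates. Step 2: Expose to compound for 48 hours at 5 concentrations. Step 3: Interpolate endpoints linearly; if unreached, use highest concentration. TGI marks complete inhibition of growth.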",
  "data": [
    {"smiles": "CSC1N=CNc2c1sc(=S)n2-c1ccccc1", "note": "(stereo not given)", "values": [
      {"measurement": "TGI", "setting": "HOP-92 NSCLC", "value": "> 100", "unit": "µM"},
      {"measurement": "TGI", "setting": "XF 498 CNS", "value": "> 100", "unit": "µM"},
      {"measurement": "TGI", "setting": "HT29 colon", "value": "> 100", "unit": "µM"},
      {"measurement": "TGI", "setting": "MALME-3M melanoma", "value": "> 100", "unit": "µM"},
      {"measurement": "TGI", "setting": "DLD-1 colon", "value": "> 100", "unit": "µM"},
      {"measurement": "TGI", "setting": "IGROV1 ovarian", "value": "> 100", "unit": "µM"},
      {"measurement": "TGI", "setting": "DMS 273 small cell lung", "value": "> 100", "unit": "µM"},
      {"measurement": "TGI", "setting": "HOP-18 NSCLC", "value": "> 100", "unit": "µM"},
      {"measurement": "TGI", "setting": "EKVX NSCLC", "value": "> 100", "unit": "µM"},
      {"measurement": "TGI", "setting": "HCC-2998 colon", "value": "> 100", "unit": "µM"},
      {"measurement": "TGI", "setting": "M19-MEL melanoma", "value": "> 100", "unit": "µM"},
      {"measurement": "TGI", "setting": "UACC-62 melanoma", "value": "> 100", "unit": "µM"},
      {"measurement": "TGI", "setting": "NCI-H226 lung", "value": "> 100", "unit": "µM"},
      {"measurement": "TGI", "setting": "HCT-116 colon", "value": "> 100", "unit": "µM"},
      {"measurement": "TGI", "setting": "CAKI-1 renal", "value": "> 100", "unit": "µM"},
      {"measurement": "TGI", "setting": "LOX IMVI melanoma", "value": "> 100", "unit": "µM"},
      {"measurement": "TGI", "setting": "SK-MEL-5 melanoma", "value": "> 100", "unit": "µM"},
      {"measurement": "TGI", "setting": "HCT-15 colon", "value": "> 100", "unit": "µM"},
      {"measurement": "TGI", "setting": "SF-295 CNS", "value": "> 100", "unit": "µM"},
      {"measurement": "TGI", "setting": "U251 CNS", "value": "> 100", "unit": "µM"},
      {"measurement": "TGI", "setting": "SF-268 CNS", "value": "> 100", "unit": "µM"},
      {"measurement": "TGI", "setting": "UACC-257 melanoma", "value": "> 100", "unit": "µM"},
      {"measurement": "TGI", "setting": "RPMI-8226 leukemia", "value": "> 100", "unit": "µM"},
      {"measurement": "TGI", "setting": "COLO 205 colon", "value": "> 100", "unit": "µM"},
      {"measurement": "TGI", "setting": "OVCAR-5 ovarian", "value": "> 100", "unit": "µM"},
      {"measurement": "TGI", "setting": "A549 NSCLC", "value": "> 100", "unit": "µM"},
      {"measurement": "TGI", "setting": "ACHN renal", "value": "> 100", "unit": "µM"},
      {"measurement": "TGI", "setting": "KM20L2 colon", "value": "> 100", "unit": "µM"},
      {"measurement": "TGI", "setting": "SW-620 colon", "value": "> 100", "unit": "µM"},
      {"measurement": "TGI", "setting": "TK-10 renal", "value": "> 100", "unit": "µM"},
      {"measurement": "TGI", "setting": "SR leukemia", "value": "> 100", "unit": "µM"},
      {"measurement": "TGI", "setting": "DMS 114 small cell lung", "value": "> 100", "unit": "µM"},
      {"measurement": "TGI", "setting": "NCI-H460 lung", "value": "> 100", "unit": "µM"},
      {"measurement": "TGI", "setting": "SK-MEL-2 melanoma", "value": "> 100", "unit": "µM"},
      {"measurement": "TGI", "setting": "OVCAR-3 ovarian", "value": "> 100", "unit": "µM"},
      {"measurement": "TGI", "setting": "KM12 colon", "value": "> 100", "unit": "µM"},
      {"measurement": "TGI", "setting": "M14 melanoma", "value": "> 100", "unit": "µM"},
      {"measurement": "TGI", "setting": "MOLT-4 leukemia", "value": "> 100", "unit": "µM"},
      {"measurement": "TGI", "setting": "A498 renal", "value": "> 100", "unit": "µM"},
      {"measurement": "TGI", "setting": "LXFL 529 NSCLC", "value": "> 100", "unit": "µM"},
      {"measurement": "TGI", "setting": "HOP-62 NSCLC", "value": 74.4, "unit": "µM"},
      {"measurement": "TGI", "setting": "UO-31 renal", "value": "> 100", "unit": "µM"},
      {"measurement": "TGI", "setting": "NCI-H522 lung", "value": "> 100", "unit": "µM"},
      {"measurement": "TGI", "setting": "SN12C renal", "value": "> 100", "unit": "µM"},
      {"measurement": "TGI", "setting": "SNB-19 CNS", "value": "> 100", "unit": "µM"},
      {"measurement": "TGI", "setting": "786-0 renal", "value": "> 100", "unit": "µM"},
      {"measurement": "TGI", "setting": "NCI-H23 lung", "value": "> 100", "unit": "µM"},
      {"measurement": "TGI", "setting": "SF-539 CNS", "value": "> 100", "unit": "µM"},
      {"measurement": "TGI", "setting": "RXF 393 renal", "value": "> 100", "unit": "µM"},
      {"measurement": "TGI", "setting": "OVCAR-8 ovarian", "value": "> 100", "unit": "µM"},
      {"measurement": "TGI", "setting": "SK-MEL-28 melanoma", "value": "> 100", "unit": "µM"},
      {"measurement": "TGI", "setting": "SK-OV-3 ovarian", "value": "> 100", "unit": "µM"},
      {"measurement": "TGI", "setting": "SNB-75 CNS", "value": 84.7, "unit": "µM"},
      {"measurement": "TGI", "setting": "SNB-78 CNS", "value": "> 100", "unit": "µM"},
      {"measurement": "TGI", "setting": "OVCAR-4 ovarian", "value": "> 100", "unit": "µM"}
    ]}
  ]
}
